Experimental data from ChEMBL document CHEMBL5696441 (Nat Chem Biol, 2011).

Assays:
[1] = molecular target: Dual specificity tyrosine-phosphorylation-regulated kinase 1A (Homo sapiens) (UniProt Q13627); assay: Inhibition of DYRK1A (unknown origin) assessed as remaining activity at 1 uM by Kinome scan method relative to control
[2] = molecular target: Serine/threonine-protein kinase SIK2 (Homo sapiens) (UniProt Q9H0K1); assay: Inhibition of SIK2 (unknown origin) assessed as remaining activity at 1 uM by Kinome scan method relative to control
[3] = molecular target: BMP-2-inducible protein kinase (Homo sapiens) (UniProt Q9NSY1); assay: Inhibition of BIKE (unknown origin) assessed as remaining activity at 1 uM by Kinome scan method relative to control
Chain of BMP-2-inducible protein kinase (Homo sapiens) (Q9NSY1 whole entry, looked up, canonical isoform): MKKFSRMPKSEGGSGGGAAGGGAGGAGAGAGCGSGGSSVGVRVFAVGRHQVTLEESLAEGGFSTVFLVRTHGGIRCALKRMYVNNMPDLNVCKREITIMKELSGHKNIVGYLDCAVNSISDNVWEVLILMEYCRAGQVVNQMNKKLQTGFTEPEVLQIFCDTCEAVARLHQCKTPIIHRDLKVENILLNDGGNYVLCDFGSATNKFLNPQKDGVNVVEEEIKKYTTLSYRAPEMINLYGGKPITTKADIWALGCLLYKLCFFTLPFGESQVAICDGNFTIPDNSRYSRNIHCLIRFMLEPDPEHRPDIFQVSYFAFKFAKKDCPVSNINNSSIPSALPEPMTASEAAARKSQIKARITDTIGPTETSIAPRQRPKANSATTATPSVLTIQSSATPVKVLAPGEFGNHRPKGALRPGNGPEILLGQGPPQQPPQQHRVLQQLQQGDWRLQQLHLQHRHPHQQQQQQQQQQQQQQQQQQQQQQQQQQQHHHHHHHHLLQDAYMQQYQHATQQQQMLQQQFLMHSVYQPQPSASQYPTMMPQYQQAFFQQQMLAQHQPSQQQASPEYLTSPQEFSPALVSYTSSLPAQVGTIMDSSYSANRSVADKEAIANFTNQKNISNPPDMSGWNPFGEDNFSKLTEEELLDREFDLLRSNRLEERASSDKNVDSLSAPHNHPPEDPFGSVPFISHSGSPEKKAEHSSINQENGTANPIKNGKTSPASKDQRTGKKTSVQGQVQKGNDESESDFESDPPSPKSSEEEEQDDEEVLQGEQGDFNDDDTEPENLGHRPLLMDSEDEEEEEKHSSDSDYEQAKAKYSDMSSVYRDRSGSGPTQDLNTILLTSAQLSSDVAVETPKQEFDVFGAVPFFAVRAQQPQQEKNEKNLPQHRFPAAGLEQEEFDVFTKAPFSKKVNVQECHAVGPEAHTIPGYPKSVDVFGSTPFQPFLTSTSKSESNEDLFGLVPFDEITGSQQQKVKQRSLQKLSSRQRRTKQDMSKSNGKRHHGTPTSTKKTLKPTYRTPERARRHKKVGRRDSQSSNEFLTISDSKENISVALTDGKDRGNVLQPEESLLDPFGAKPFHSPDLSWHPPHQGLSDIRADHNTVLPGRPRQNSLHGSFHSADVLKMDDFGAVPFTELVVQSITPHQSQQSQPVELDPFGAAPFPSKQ

[4] = molecular target: T1, Phosphorylase b kinase gamma catalytic chain, liver/testis isoform (Homo sapiens) (UniProt P15735); assay: Inhibition of PHKG2 (unknown origin) assessed as remaining activity at 1 uM by Kinome scan method relative to control
T1 sequence (whole entry): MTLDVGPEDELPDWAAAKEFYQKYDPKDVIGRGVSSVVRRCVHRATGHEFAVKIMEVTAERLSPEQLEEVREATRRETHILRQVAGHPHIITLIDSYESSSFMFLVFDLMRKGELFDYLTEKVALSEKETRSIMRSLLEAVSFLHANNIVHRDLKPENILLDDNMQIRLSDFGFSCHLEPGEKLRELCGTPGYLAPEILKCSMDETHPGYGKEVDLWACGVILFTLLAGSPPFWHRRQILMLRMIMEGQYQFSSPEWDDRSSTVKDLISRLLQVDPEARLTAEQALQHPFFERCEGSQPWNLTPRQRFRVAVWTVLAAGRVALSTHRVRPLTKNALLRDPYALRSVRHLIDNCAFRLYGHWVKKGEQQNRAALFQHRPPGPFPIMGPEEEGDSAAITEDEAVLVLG

[5] = molecular target: Casein kinase II subunit alpha (Homo sapiens) (UniProt P68400); assay: Inhibition of CSNK2A1 (unknown origin) assessed as remaining activity at 1 uM by Kinome scan method relative to control
[6] = molecular target: T2, Serine/threonine-protein kinase Nek2 (Homo sapiens) (UniProt P51955); assay: Inhibition of NEK2 (unknown origin) assessed as remaining activity at 1 uM by Kinome scan method relative to control
T2 sequence (whole entry): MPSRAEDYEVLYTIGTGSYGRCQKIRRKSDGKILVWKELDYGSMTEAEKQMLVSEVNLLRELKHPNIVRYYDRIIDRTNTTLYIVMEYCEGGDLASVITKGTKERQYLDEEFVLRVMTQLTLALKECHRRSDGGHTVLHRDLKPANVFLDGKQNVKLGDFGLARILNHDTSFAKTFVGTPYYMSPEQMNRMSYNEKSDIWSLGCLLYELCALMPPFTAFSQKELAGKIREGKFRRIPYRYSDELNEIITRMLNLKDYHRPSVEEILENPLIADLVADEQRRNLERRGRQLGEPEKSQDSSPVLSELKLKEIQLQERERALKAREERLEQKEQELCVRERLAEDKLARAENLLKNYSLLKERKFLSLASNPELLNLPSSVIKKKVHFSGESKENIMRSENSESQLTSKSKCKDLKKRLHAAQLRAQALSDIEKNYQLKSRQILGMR

[7] = molecular target: Dual specificity testis-specific protein kinase 1 (Homo sapiens) (UniProt Q15569); assay: Inhibition of TESK1 (unknown origin) assessed as remaining activity at 1 uM by Kinome scan method relative to control
[8] = molecular target: MAP kinase-interacting serine/threonine-protein kinase 2 (Homo sapiens) (UniProt Q9HBH9); assay: Inhibition of MKNK2 (unknown origin) assessed as remaining activity at 1 uM by Kinome scan method relative to control
Chain of MAP kinase-interacting serine/threonine-protein kinase 2 (Homo sapiens) (Q9HBH9 whole entry, looked up): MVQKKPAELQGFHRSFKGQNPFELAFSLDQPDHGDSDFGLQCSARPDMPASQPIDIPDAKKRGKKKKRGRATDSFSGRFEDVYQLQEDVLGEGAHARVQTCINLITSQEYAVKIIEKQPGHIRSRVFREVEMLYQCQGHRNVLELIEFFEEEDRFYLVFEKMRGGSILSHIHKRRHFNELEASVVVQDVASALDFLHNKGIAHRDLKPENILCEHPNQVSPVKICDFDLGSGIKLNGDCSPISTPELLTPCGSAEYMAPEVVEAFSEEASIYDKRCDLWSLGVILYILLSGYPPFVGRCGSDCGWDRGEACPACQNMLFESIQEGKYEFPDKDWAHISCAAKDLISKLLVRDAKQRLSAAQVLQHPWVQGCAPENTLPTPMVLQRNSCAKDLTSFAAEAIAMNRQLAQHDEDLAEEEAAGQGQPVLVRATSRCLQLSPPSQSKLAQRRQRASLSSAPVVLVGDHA

[9] = molecular target: Serine/threonine-protein kinase DCLK3 (Homo sapiens) (UniProt Q9C098); assay: Inhibition of DCAMKL3 (unknown origin) assessed as remaining activity at 1 uM by Kinome scan method relative to control
Chain of Serine/threonine-protein kinase DCLK3 (Homo sapiens) (Q9C098 whole entry): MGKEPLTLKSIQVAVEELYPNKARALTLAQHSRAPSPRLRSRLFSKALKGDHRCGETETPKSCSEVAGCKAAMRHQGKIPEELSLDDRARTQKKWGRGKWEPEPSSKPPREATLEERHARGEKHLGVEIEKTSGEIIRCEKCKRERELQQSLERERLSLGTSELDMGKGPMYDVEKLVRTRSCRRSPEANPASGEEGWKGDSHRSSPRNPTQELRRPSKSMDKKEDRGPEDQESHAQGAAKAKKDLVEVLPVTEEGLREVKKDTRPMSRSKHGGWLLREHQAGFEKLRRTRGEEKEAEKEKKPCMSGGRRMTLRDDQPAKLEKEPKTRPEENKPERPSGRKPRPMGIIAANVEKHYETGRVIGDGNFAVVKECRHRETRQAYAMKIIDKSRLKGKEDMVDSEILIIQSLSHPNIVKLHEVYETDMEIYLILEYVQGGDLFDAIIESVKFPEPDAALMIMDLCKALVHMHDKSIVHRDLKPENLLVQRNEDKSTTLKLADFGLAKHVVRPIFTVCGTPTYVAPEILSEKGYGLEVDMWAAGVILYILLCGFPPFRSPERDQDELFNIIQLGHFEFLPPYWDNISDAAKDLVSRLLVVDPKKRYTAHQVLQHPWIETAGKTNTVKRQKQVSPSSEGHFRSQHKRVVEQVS

[10] = molecular target: T3, Ephrin type-A receptor 1 (Homo sapiens) (UniProt P21709); assay: Inhibition of EPHA1 (unknown origin) assessed as remaining activity at 1 uM by Kinome scan method relative to control
T3 sequence (whole entry): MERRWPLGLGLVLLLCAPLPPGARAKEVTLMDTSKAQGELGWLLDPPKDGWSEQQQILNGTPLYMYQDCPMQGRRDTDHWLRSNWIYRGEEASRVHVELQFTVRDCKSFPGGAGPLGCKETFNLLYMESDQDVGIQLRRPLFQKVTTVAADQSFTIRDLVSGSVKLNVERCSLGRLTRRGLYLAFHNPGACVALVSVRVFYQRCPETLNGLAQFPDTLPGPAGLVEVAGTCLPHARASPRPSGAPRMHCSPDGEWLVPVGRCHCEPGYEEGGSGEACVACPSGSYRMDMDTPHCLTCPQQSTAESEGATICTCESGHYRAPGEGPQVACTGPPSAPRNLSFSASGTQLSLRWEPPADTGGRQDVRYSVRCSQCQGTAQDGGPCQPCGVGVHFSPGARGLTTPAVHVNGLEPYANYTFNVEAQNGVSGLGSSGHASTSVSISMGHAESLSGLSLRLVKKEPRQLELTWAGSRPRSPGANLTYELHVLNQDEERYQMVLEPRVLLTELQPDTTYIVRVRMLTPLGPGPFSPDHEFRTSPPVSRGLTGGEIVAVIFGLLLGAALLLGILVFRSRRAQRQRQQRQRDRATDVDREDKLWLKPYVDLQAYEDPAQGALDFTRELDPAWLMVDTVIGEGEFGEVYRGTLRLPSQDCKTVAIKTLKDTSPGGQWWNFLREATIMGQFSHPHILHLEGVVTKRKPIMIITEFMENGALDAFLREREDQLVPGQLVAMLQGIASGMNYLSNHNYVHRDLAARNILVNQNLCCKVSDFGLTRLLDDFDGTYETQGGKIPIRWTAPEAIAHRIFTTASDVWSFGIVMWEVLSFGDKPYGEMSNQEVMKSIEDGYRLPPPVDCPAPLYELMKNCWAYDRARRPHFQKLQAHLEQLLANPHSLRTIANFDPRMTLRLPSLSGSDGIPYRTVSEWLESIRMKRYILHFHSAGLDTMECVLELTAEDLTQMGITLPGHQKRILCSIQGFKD

[11] = molecular target: Serine/threonine-protein kinase pim-2 (Homo sapiens) (UniProt Q9P1W9); assay: Inhibition of PIM2 (unknown origin) assessed as remaining activity at 1 uM by Kinome scan method relative to control
Chain of Serine/threonine-protein kinase pim-2 (Homo sapiens) (Q9P1W9 whole entry, looked up): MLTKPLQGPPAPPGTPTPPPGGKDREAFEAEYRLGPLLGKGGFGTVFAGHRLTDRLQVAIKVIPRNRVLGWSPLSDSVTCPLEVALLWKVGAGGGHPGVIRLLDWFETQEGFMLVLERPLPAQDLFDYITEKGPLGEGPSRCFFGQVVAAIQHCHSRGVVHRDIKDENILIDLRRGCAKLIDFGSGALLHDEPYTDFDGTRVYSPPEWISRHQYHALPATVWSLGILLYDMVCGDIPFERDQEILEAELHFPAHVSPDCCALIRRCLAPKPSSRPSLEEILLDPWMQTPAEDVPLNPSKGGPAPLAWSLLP

[12] = molecular target: Serine/threonine-protein kinase PLK3 (Homo sapiens) (UniProt Q9H4B4); assay: Inhibition of PLK3 (unknown origin) assessed as remaining activity at 1 uM by Kinome scan method relative to control
Chain of Serine/threonine-protein kinase PLK3 (Homo sapiens) (Q9H4B4 whole entry, looked up): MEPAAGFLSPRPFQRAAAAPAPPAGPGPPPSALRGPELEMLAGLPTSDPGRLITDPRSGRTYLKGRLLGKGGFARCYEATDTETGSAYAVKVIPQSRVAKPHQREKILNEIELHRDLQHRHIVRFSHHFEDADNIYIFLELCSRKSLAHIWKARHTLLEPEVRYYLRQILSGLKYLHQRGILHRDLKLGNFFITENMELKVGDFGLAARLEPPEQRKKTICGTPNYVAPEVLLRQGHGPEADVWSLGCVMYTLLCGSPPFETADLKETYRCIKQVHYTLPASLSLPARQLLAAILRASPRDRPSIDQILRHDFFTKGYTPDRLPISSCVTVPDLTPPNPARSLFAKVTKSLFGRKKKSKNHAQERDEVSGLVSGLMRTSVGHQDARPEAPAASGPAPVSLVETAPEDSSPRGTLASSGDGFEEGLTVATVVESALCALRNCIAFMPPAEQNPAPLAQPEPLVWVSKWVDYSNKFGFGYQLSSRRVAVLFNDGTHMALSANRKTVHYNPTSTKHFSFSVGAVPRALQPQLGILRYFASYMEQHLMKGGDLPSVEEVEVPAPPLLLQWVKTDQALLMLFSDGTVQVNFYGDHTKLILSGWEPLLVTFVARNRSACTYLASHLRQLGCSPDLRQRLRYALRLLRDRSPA

[13] = molecular target: Serine/threonine-protein kinase/endoribonuclease IRE1 (Homo sapiens) (UniProt O75460); assay: Inhibition of ERN1 (unknown origin) assessed as remaining activity at 1 uM by Kinome scan method relative to control
Chain of Serine/threonine-protein kinase/endoribonuclease IRE1 (Homo sapiens) (O75460 19-977 limits assumed): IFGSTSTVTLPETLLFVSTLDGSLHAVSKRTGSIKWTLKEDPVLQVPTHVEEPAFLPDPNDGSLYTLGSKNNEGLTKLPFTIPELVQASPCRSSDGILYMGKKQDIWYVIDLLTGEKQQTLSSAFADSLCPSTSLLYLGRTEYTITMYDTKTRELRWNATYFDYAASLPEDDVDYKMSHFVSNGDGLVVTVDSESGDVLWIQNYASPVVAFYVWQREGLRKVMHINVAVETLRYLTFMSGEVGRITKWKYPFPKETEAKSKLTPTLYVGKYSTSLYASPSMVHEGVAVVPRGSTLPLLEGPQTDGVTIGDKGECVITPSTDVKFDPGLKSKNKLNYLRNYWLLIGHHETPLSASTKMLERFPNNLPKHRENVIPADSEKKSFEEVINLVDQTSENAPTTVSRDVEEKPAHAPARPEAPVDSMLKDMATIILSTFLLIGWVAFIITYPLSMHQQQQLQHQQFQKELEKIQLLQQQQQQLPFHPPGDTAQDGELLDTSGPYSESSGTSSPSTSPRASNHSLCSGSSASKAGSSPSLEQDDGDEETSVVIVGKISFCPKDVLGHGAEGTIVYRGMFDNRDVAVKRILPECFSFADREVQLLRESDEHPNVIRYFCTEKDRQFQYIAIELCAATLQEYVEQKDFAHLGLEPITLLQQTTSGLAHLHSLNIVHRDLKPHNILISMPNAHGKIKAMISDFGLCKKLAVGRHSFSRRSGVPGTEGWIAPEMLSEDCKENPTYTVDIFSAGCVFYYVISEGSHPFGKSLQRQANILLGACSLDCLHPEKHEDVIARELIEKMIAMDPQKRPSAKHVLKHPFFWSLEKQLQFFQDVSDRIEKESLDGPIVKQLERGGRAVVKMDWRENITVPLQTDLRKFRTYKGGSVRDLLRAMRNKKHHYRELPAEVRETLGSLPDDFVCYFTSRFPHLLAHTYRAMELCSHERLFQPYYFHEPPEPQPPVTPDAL

[14] = molecular target: Serine/threonine-protein kinase 32B (Homo sapiens) (UniProt Q9NY57); assay: Inhibition of YANK2 (unknown origin) assessed as remaining activity at 1 uM by Kinome scan method relative to control
[15] = molecular target: Activin receptor type-2A (Homo sapiens) (UniProt P27037); assay: Inhibition of ACVR2A (unknown origin) assessed as remaining activity at 1 uM by Kinome scan method relative to control
Chain of Activin receptor type-2A (Homo sapiens) (P27037 whole entry): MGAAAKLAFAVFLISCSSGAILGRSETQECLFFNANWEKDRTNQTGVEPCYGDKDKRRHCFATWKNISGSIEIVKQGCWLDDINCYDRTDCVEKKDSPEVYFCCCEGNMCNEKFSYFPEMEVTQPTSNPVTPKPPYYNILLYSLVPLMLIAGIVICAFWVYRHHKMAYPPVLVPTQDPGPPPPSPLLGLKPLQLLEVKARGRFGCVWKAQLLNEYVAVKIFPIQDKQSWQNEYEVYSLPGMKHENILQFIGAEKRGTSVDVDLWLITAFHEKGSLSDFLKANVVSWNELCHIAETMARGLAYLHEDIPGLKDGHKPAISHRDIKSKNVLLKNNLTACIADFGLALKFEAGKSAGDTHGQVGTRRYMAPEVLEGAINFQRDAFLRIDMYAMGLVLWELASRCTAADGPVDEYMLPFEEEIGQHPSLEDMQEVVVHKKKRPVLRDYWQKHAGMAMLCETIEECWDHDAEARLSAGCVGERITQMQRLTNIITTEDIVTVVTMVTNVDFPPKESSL

Nc1ccccc1Nc1ccc2c(c1)CCc1ccccc1C2=O gave an Activity [1] of 92%, an Activity [2] of 83% and an Activity [3] of 50%. It also gave an Activity [4] of 98%, an Activity [5] of 86% and an Activity [6] of 90%. For the same molecule, the Activity [7] was 90%, the Activity [8] was 88% and the Activity [9] was 91%. It also gave an Activity [10] of 98%, an Activity [11] of 98% and an Activity [12] of 97%. The Activity [13] was 98%, the Activity [14] was 89% and the Activity [15] was 96%.

Work on O=C1c2ccc(Nc3ccc(F)cc3F)cc2CCc2ccc(OC[C@H](O)CO)cc21 [Skepinone-L] yielded an Activity [1] of 98%, an Activity [2] of 93% and an Activity [3] of 37%. It also gave an Activity [4] of 96%, an Activity [5] of 96% and an Activity [6] of 94%. It also gave an Activity [7] of 100%, an Activity [8] of 72% and an Activity [9] of 99%. The Activity [10] was 91%, the Activity [11] was 100% and the Activity [12] was 100%. The Activity [13] was 100%, the Activity [14] was 98% and the Activity [15] was 95%.
